Source: the supplement of paper PMC10307832

What was measured:
Assay in all cases: relative viability (nuclei count vs DMSO), 5 days (fraction); higher = more cells survive
IDH-C35 + OSI-027 = compound: Cc1ccccc1C(C(=O)NC1CCCCC1)N(C(=O)Cn1ccnc1C)c1cccc(F)c1 [IDH-C35] + COc1cccc2cc(-c3nc([C@H]4CC[C@H](C(=O)O)CC4)n4ncnc(N)c34)[nH]c12 [OSI-027] (partner 0.5 µM)
Method in brief: (§1)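 Relative viability is defined as nuclei in treated wells over nuclei in vehicle wells. Duplicate plates were run and medians reported. Lung cancer cell lines in 1536-well plates were dosed by pin tool one day after seeding, with one drug or with a fixed anchor-drug dose plus five library-drug doses (not always all listed) in √10 steps, and nuclei were counted after 5 days.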

IDH-C35 + Vorinostat = compound: Cc1ccccc1C(C(=O)NC1CCCCC1)N(C(=O)Cn1ccnc1C)c1cccc(F)c1 [IDH-C35] + O=C(CCCCCCC(=O)Nc1ccccc1)NO [Vorinostat] (partner 1 µM)
Method in brief: as §1

IDH-C35 + Linsitinib = compound: Cc1ccccc1C(C(=O)NC1CCCCC1)N(C(=O)Cn1ccnc1C)c1cccc(F)c1 [IDH-C35] + C[C@]1(O)C[C@@H](c2nc(-c3ccc4ccc(-c5ccccc5)nc4c3)c3c(N)nccn32)C1 [Linsitinib] (partner 1 µM)
Method in brief: as §1

IDH-C35 + Alpelisib = compound: Cc1ccccc1C(C(=O)NC1CCCCC1)N(C(=O)Cn1ccnc1C)c1cccc(F)c1 [IDH-C35] + Cc1nc(NC(=O)N2CCC[C@H]2C(N)=O)sc1-c1ccnc(C(C)(C)C(F)(F)F)c1 [Alpelisib] (partner 2 µM)
Method in brief: as §1

Cell Line	relative viability (IDH-C35 + OSI-027; first compound 0.08 µM)	relative viability (IDH-C35 + OSI-027; first compound 0.253 µM)	relative viability (IDH-C35 + OSI-027; first compound 0.8 µM)	relative viability (IDH-C35 + OSI-027; first compound 2.53 µM)	relative viability (IDH-C35 + OSI-027; first compound 8 µM)	relative viability (IDH-C35 + Vorinostat; first compound 0.08 µM)	relative viability (IDH-C35 + Vorinostat; first compound 0.253 µM)	relative viability (IDH-C35 + Vorinostat; first compound 0.8 µM)	relative viability (IDH-C35 + Vorinostat; first compound 2.53 µM)	relative viability (IDH-C35 + Vorinostat; first compound 8 µM)	relative viability (IDH-C35 + Linsitinib; first compound 0.08 µM)	relative viability (IDH-C35 + Linsitinib; first compound 0.253 µM)	relative viability (IDH-C35 + Linsitinib; first compound 0.8 µM)	relative viability (IDH-C35 + Linsitinib; first compound 2.53 µM)	relative viability (IDH-C35 + Linsitinib; first compound 8 µM)	relative viability (IDH-C35 + Alpelisib; first compound 0.08 µM)	relative viability (IDH-C35 + Alpelisib; first compound 0.8 µM)	relative viability (IDH-C35 + Alpelisib; first compound 2.53 µM)	relative viability (IDH-C35 + Alpelisib; first compound 8 µM)	relative viability (IDH-C35 + Alpelisib; first compound 0.253 µM)
NCI-H441	0.617	0.647	0.538	0.675	0.579	0.906	0.74	0.787	0.683	0.887	0.589	0.518	0.404	0.651	0.633	0.649	0.688	0.684	0.754	
LCLC-103H	0.458	0.487	0.473	0.428	0.457	0.782	0.755	0.87	0.591	0.625	1.21	1.01	0.98	1.13	1.07	1.05	0.918	0.963	1.09	0.979
LCLC-97TM1	0.557	0.614	0.508	0.447	0.421	0.706	0.729	0.67		0.436	0.209	0.194	0.179		0.193	0.289	0.242		0.242	0.213
NCI-H727	0.805	0.474	0.464	0.588	0.592	1.2	1.08	1.02	1.17	1.16	0.202	0.248	0.328	0.249	0.254	0.536	0.543	0.582	0.83	0.719
NCI-H1355	0.422	0.445	0.382	0.466	0.395	0.665	0.691	0.601	0.646	0.691	0.896	0.859	0.848	0.773	0.892	0.894	0.801	0.864	0.849	0.787
HOP-62	0.895	0.801	0.76	0.79	0.78	0.532	0.708	0.669	0.434	0.628	1.15	0.803	0.924		1.01	1.07	0.953		0.85	0.876
NCI-H2085	0.772	0.929	0.722	0.741	0.638	0.88	0.784	0.81	0.86	0.719	0.807	0.815	0.922	0.992	0.846	0.973	0.799	1.01	0.863	0.897
